Data reported in paper PMC10226046, “Prodrug Strategies for the Development of β-L-5-((E)-2-Bromovinyl)-1-((2S,4S)-2-(hydroxymethyl)-1,3-(dioxolane-4-yl))uracil (L-BHDU) against Varicella Zoster Virus (VZV)” (Journal of Medicinal Chemistry, 2023).
Like-named read-outs stand apart in the source and are kept apart here.

Legend:
[1] = Stability in gastric and intestinal juice; type: in vitro ADME; details: data not shown
VZV-ORF57-ΔTK = assay: microbe, parasite or virus in culture; type: cell-based, Varicella zoster virus; details: Human alphaherpesvirus 3, ARPE-19
[2] = Neutral red dye uptake cytotoxicity assay in ARPE-19 cells; details: human
VZV-ORF57-ΔTKTS = assay: microbe, parasite or virus in culture; type: cell-based, Varicella zoster virus; details: Human alphaherpesvirus 3, ARPE-19
VZV-ORF57-Luc [3] = details: for EC50: cell-free VZV-ORF57-Luc, ARPE-19 cells, 72 hpi, bioluminescence imaging
[4] = Oral pharmacokinetic absorption study in BALB/c mice (plasma, LC-MS/MS); type: in vivo; details: after oral 22.5 mg/kg POM-L-BHDU-MP, LC/MS
Procedure: A pharmacokinetic absorption study was performed in BALB/c mice (Charles River). A single equimolar dose of 22.5 mg/kg POM-L-BHDU-MP or 11.4 mg/kg L-BHDU was dissolved in Cremophor–dimethyl sulfoxide (DMSO)–saline (1:1:8) and administered by oral gavage to two groups of mice with equal numbers of male and female mice (N = 15 each male and female).
Plasma was separated from red blood cells and immediately frozen at −80 °C.
This animal protocol #282 was approved by the IACUC at SUNY Upstate Medical University, which has been fully accredited by AAALAC since 7/31/1999. This method was previously used to evaluate L-BHDU effects on 5-fluorouracil metabolism.[16] Briefly, a single equimolar dose of 22.5 mg/kg POM-L-BHDU-MP or 11.4 mg/kg L-BHDU was dissolved in Cremophor–DMSO–saline (1:1:8) and administered by oral gavage to two groups of BALB/c mice (Charles River) with equal numbers of male and female mice (N = 15 each male and female). Six untreated mice were used for blank controls and were labeled time 0. At 20, 40, 60, and 120 min, three mice from the POM-L-BHDU-MP group and three mice from the L-BHDU group were anesthetized with inhaled isoflurane and then exsanguinated by cardiac puncture. Blood samples were collected into a tube containing heparin. Plasma was separated from red blood cells by centrifugation at 10,000 rpm for 5 min. Plasma was transferred to a new tube and immediately frozen at −80 °C.
Plasma samples were thawed, and exactly 0.95 mL was removed for analysis. The internal standard azidothymidine was added to mouse plasma samples at a final concentration of 20 ng/mL. Proteins were precipitated from the plasma by adding 2× volumes of methanol, then the samples were clarified by centrifugation. The supernatants were dried using an N-EVAP 116 analytical nitrogen evaporator and then reconstituted with 50% methanol in water. LC-MS/MS was used to analyze the concentrations of POM-L-BHDU-MP, L-BHDU, and L-BHDU-MP. Calibration curves were made using BALB/c mouse plasma (Innovative Research, Inc. Novi MI) prior to analyzing the experimental samples.
The primary stock solutions for the calibration were prepared at 0.5 mg/mL for L-BHDU, 1 mg/mL for POM-L-BHDU-MP, and 1 mg/mL for L-BHDU-MP. The primary stock solutions were diluted to working solutions that were in turn used to spike the biological matrix of interest. L-BHDU calibration points were 100.0, 400.0, 800.0, 1000.0, 4000.0, 6000.0, 8000.0, 10,000.0, and 12,000.0 ng/mL. L-BHDU-MP calibration points were 100.0, 200.0, 400.0, 800.0, 1000.0, 2000.0, 4000.0, 6000.0, and 8000.0 ng/mL. The ISTD working solution of AZT was prepared at 20 ng/mL. The standard stock solutions were stored in −80 °C freezer until used. […] The samples were analyzed in a negative ESI mode. […]

VZV-ORF57-Luc [5] = assay: microbe, parasite or virus in culture; details: Human alphaherpesvirus 3, ARPE-19, cell-free VZV-ORF57-Luc, ARPE-19 cells, 72 hpi, bioluminescence imaging
VZV-ORF57-Luc [6] = assay: microbe, parasite or virus in culture; type: cell-based, Varicella zoster virus; details: Human alphaherpesvirus 3, ARPE-19

CC(C)(C)C(=O)OCOP(=O)(OCOC(=O)C(C)(C)C)OC[C@H]1OC[C@@H](n2cc(/C=C/Br)c(=O)[nH]c2=O)O1 [POM-L-BHDU-MP (41), Bis(POM) Prodrug of L-BHDU-MP]
stability in gastric and intestinal juice [1]: good stability | EC50 (VZV-ORF57-ΔTK): > 2 µM | CC50 at 72 h [2]: > 100 µM | EC50 (VZV-ORF57-ΔTKTS): > 2 µM | SI (CC50/EC50) (VZV-ORF57-Luc [3]): >2809 | EC50 (VZV-ORF57-Luc [3]): 0.0356 µM | EC50 (VZV-ORF57-Luc [3]; listed as POM-L-BHDU-MP): 0.036 µM | SI (CC50/EC50) (VZV-ORF57-Luc [3]; selectivity index = CC50/EC50, ARPE-19 cells): >2809 | SI (CC50/EC50) (VZV-ORF57-Luc [3]; selectivity index = CC50/EC50, ARPE-19 cells, listed as POM-L-BHDU-MP): > 2809 | L-BHDU-MP detected in plasma [4]: below the limit of quantitation | EC50 (VZV-ORF57-Luc [5]): 0.035 µM | EC50 (VZV-ORF57-Luc [6]): 0.051 µM
